“Also recorded” adds a separate entry of the source.
How the values were obtained:
[1] = tested on: CD40; assay: Flow cytometry of CD40 surface antigen in IFNγ-activated human macrophages; format: cell-based; conditions: compound 4 at 10 μM, compound 5 at 25 μM, hydrochloride
Description: (§1) Surface antigen expression analysis. To study membrane receptor expression, THP1-derived human macrophages (750×10^4 cells/mL) were pretreated for 3 h with DMSO or compounds 4 and 5, and then left untreated (control) or treated for 48 h with 50 U/mL IFNγ. The expression level of MHC-II and CD40 was evaluated by flow cytometry as described.^21-23

[2] = tested on: UBC cell line MB49-I; assay: IFNγ/TNFα-induced NO production (Griess) in MB49-I cells; format: cell-based, murine; conditions: 10 and 50 μM
Description: (§2) Evaluation of NO and Urea production by chemical methods. The MB49-I cells and the J774A.1 cells (25×10^3 cells/well) were grown and pretreated, as indicated, with various anti-inflammatory derivatives, precursors and mono-functional derivatives for a period of 3 h. Afterwards the cells were washed twice with 10% FBS RPMI-1640 and then activated to produce NO for a period of 24 h with cytokines INFγ and TNFα. NO production was measured using the Griess reagent method as previously described.^27 This method involves the detection of nitrite ions (NO2^−) formed by the spontaneous oxidation of NO under physiological conditions. According the manufacture procedure (Life Technologies; # G-7921), equal volumes of sulfanilic acid and N-(1-naphthyl)ethylenediamine are mixed together to form the Griess reagent. In the presence of NO2^−, sulfanilic acid is converted to a diazonium salt, which in turn is coupled to N-(1-naphthyl)ethylenediamine to produce a pink coloration that is measured with a spectrophotometer (Biotek, synergy HT) at 548 nm. In the same manner, urea synthesis through arginase-1 activity was measured using commercially available kit.

[3] = tested on: STAT3; assay: Western blot of phosphorylated STAT3 in IL6-activated human macrophages; format: cell-based; conditions: human macrophages pretreated 30 min at 10 and 50 μM; 30 min activation with 25 ng/mL IL6; hydrochloride
Description: (§3) Cell signaling studies: THP1-derived human macrophages (750×10^3 cells/mL) and MB49-I cells (500×10^3 cells/mL) were pretreated for 30 min with vehicle (DMSO), compounds 4 and 5, at 10, 25 or 50 μM; and then washed and recovered immediately (t=0 min) or after 30 min of activation with 50 U/mL IFNγ, 25 ng/mL IL6, or 10 ng/mL TNFα. Cell lysates were prepared and analyzed by immunoblotting as described.^21-23,25 Briefly, protein samples were resolved by SDS-PAGE under reducing conditions and transferred onto a PVDF membrane. Blots were first probed with rabbit polyclonal antibodies against phospho-STAT1 (pSTAT1), pSTAT3, or p-IκB (all at 1:2000) overnight at 4° C. Blots were then incubated with HRP-conjugated goat anti-rabbit IgG Ab (1:3000) for 1 h at room temperature. The same blots were stripped and then probed with anti-STAT1 or anti-STAT3 Abs (both at 1:1000). In both cases, probed molecules were visualized using an enhancement chemiluminescence detection kit (Thermo Fisher Scientific).

[4] = tested on: MHC-II; assay: Flow cytometry of MHC-II surface antigen in IFNγ-activated human macrophages; format: cell-based; conditions: compound 4 at 10 μM, compound 5 at 25 μM, hydrochloride
Description: as §1

[5] = tested on: macrophage-like J774A.1 cells; assay: IFNγ/TNFα-induced NO production (Griess) in J774A.1 cells; format: cell-based, murine; conditions: pretreatment then IFNγ and TNFα, hydrochloride
Description: as §2

[6] = tested on: STAT1; assay: Western blot of phosphorylated STAT1 in IFNγ-activated human macrophages; format: cell-based; conditions: human macrophages pretreated 30 min at 10 and 50 μM; 30 min activation with 50 U/mL IFNγ; hydrochloride
Description: as §3

[7] = tested on: IκB / NFκB signaling pathway; assay: Western blot of phosphorylated IκB in LPS-activated RAW 264.7 cells; format: cell-based, murine; conditions: 90 min pretreatment at 20 and 37.5 μM, 100 ng/mL LPS 15 min
[8] = tested on: murine macrophages RAW 264.7 cells; conditions: 90 min pretreatment, counted after 24 h
[9] = tested on: MB49-I cells; assay: LPS/IFNγ-induced NO production in MB49-I cells; format: cell-based, murine
Description: as §2, with “Afterwards the cells were washed twice with 10% FBS RPMI-1640 and then activated to produce NO for a period of 24 h with cytokines INFγ and TNFα.” left out

[10] = tested on: MB49-I tumors; assay: Ectopic UBC model, MB49-I tumors implanted in the flank of male mice; format: in vivo; conditions: i.p. 150 μM during 18 days, tumors recovered day 20
Description: Ectopic UBC model. Male C57BL/6J mice (6-8 weeks old), each weighing 15-18 g, were used for the experiments (supplied by Charles River). The mice were housed with free access to food and water on a 12:12 h light:dark cycle with the room temperature maintained at 21° C. MB49 cells, MB49-I cells, and iNOS-deficient MB49-I cells ([…] in 100 μL PBS) were injected subcutaneously (s.c.) into the right flank of the mice. Growth rates of the s.c. tumors were monitored. The size of tumors was determined every 3 days for 24-28 days using a digital caliper and by measuring luciferin luminescence at days 15 and 25 using the IVIS imaging system. A blinded observer measured tumor length and width. The volume of the tumor was calculated from the formula: Length×width2×0.52, where length and width were tumor diameters measured with calipers in mutually perpendicular directions. At a tumor size of approximately 10 mm^3 the mice were divided into different groups. A control group received PBS as treatment. As indicated, other groups were treated at different doses (90, 150 or 300 μM) with an intraperitoneal (i.p.) injection of compounds 4 or 8 every 3-4 days for 18-20 days.^24,27

[11] = tested on: human macrophages THP-1 cells; conditions: 90 min pretreatment, counted after 24 h
[12] = tested on: murine UBC MB49-I cells; conditions: 90 min pretreatment, counted after 24 h
[13] = tested on: STAT1; assay: Western blot of phosphorylated STAT1 in IFNγ-activated RAW 264.7 cells; format: cell-based, murine; conditions: 90 min pretreatment at 20 and 37.5 μM, 5 ng/mL IFNγ 15 min
Description: as §3

## Cl.NNC(=O)c1ccc(N2C(=O)C=CC2=O)cc1 [Compound 5, 4-(2,5-dioxo-2,5-dihydro-pyrrol-1-yl)-benzoic acid hydrazide hydrochloride]
[1]
  IFNγ-induced CD40 expression: effective in reducing; also recorded: efficiently inhibited
[2]
  combined IFNγ/TNFα-induced NO synthesis: efficiently inhibited
[3]
  IL6-induced STAT3 activation (ratio of phosphorylated/no phosphorylated proteins): decreased; also recorded: efficiently inhibited
[4]
  IFNγ-induced MHC-II expression: effective in reducing; also recorded: efficiently inhibited
[5]
  combined IFNγ/TNFα-induced NO synthesis: effective in reducing; also recorded: efficiently inhibited
[6]
  IFNγ-induced STAT1 activation (ratio of phosphorylated/no phosphorylated proteins): decreased; also recorded: efficiently inhibited

## CC(=O)N(C(=O)OC(C)(C)C)N(C(C)=O)C(=O)c1ccc(N2C(=O)C=CC2=O)cc1 [Compound 11, N,N′-diacetyl-N′-[4-(2,5-dioxo-2,5-dihydro-pyrrol-1-yl)-benzoyl]-hydrazinecarboxylic acid tert-butyl ester]
[7]
  LPS-activated NFκB signaling pathway (ratio p-IkB/IkB): efficient to inhibit

## CC(=O)N(NC(=O)c1ccc(N2C(=O)C=CC2=O)cc1)C(C)=O [Compound 8, 4-(2,5-dioxo-2,5-dihydro-pyrrol-1-yl)-benzoic acid N′-diacetyl-hydrazide]
[8]
  cytotoxic effect (cell viability): lower than that of compound 4
[9]; 20 and 37.5 μM
  IFNγ/LPS-induced NO production: more efficient than compound 4
[10]
  tumor volume of muscle-invasive MB49-I tumors: anti-proliferative activity; also recorded: more efficient than compound 4
[11]
  cytotoxic effect (cell viability): lower than that of compound 4
[7]
  LPS-activated NFκB signaling pathway (ratio p-IkB/IkB): efficient to inhibit
[12]
  cytotoxic effect (cell viability): lower than that of compound 4
[13]
  IFNγ-activated STAT1 signaling pathway (ratio p-STAT1/STAT1): more efficient than other compounds

## CC(=O)N(NC(=O)OC(C)(C)C)C(=O)c1ccc(N2C(=O)C=CC2=O)cc1 [Compound 10, N-acetyl-N-[4-(2,5-dioxo-2,5-dihydro-pyrrol-1-yl)-benzoyl]-hydrazinecarboxylic acid tert-butyl ester]
[7]
  LPS-activated NFκB signaling pathway (ratio p-IkB/IkB): efficient to inhibit

## CC(C)(C)OC(=O)NNC(=O)c1ccc(N2C(=O)CCC2=O)cc1 [Compound 12, N′-[4-(2,5-dioxo-pyrrolidin-1-yl)-benzoyl]-hydrazine carboxylic acid tert-butyl ester]
[9]; compound 4 at 30 μM, compound 12 at 10, 20, 37.5 and 50 μM
  LPS/IFNγ-induced NO synthesis: lost its anti-inflammatory activity; also recorded: does not affect

Reference: patent US10759754B2, “Aminobenzoic acid derivatives for use as anti-inflammatory agents, anti-metastatic agents and/or anticancer agents” (3R VALO, S.E.C., priority 2016, dated 2020)
